SMILES strings stand for the structures.

This experiment relates to S. Typhimurium GFP reporter counter-screen, fluorescence, 4 h. Briefly: S. Typhimurium nonspecific reporter signal inhibition – Salmonella Typhimurium, GFP fluorescence, counter-screen for PhoP regulon inhibitor project, dose response (AID 2401).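 Also: S. typhimurium with Mg-insensitive nmpC-GFP reporter grown at 10 µM Mg2+; drop in reporter fluorescence reflects general culture growth inhibition.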
As a reminder, the IC50 is the concentration at which inhibition is half-maximal. In the case of `O=C(N/N=C/c1ccc([N+](=O)[O-])o1)c1ccc(O)cc1`, the half-maximal inhibitory concentration (IC50) is 36.8 µM.
The same measure for `C/C(=N\NC(=O)c1cc2ccccc2cc1O)c1ccccn1`: 17 µM; for `O=C1C=C(N2CCOCC2)c2ccccc2C1=O`: 55.5 µM; for `Cc1ccc(Nc2nc(NCc3ccco3)c3ccccc3n2)cc1`: 22.2 µM.
For `C/C(=N\Nc1ncnc2sc(C)c(C)c12)c1ccccn1`, the IC50 is 26.4 µM.
The same measure for `Cc1[nH]n(-c2ccccc2)c(=O)c1C(C[N+](=O)[O-])c1ccc(F)cc1` (configuration not stated): 78.8 µM; for `Nc1nonc1-n1nnc(C(=O)N/N=C/c2cc(Br)ccc2O)c1CSC1=NCCS1`: 19.3 µM.
`CCn1cc(C(=O)NCCCO)c(=O)c2cc(F)c(N3CCN(C)CC3)cc21`: the IC50 is 46.8 µM.
For `CC[n+]1c(/C=C/C=C/c2ccc(N(C)C)cc2)sc2ccccc21`, the IC50 is 72.9 µM.
For `C1=C(CCNCc2ccccc2)CCCC1`, the concentration for half-maximal inhibition (IC50) is 7.93 µM.
The same measure for `CN(C)C1C(=O)C(C(N)=O)=C(O)C2(O)C(=O)C3=C(O)c4c(O)cccc4C(C)(O)C3C(O)C12` (configuration not stated): 0.58 µM.
The same measure for `Cc1cc(/C=N/n2c(COc3ccccc3)nc3ccccc3c2=O)c(O)c([N+](=O)[O-])c1`: 56.5 µM; for `OCCN1CCN(Cc2cc(Cl)c3cccnc3c2O)CC1`: 75.2 µM.
The same measure for `N=c1c2c(n(Cc3ccc(Br)cc3)c3c1CCC3)CCCC2`: 132 µM; for `Oc1ccc(/C=N/Nc2nccnc2Cl)c(O)c1`: 35 µM; for `N=c1n(Cc2ccccc2)c2ccccc2n1CC(O)COc1ccc(Cl)cc1Cl` (configuration not stated): 25.9 µM.
On to `CNc1nc(NCc2ccccc2)c2ccccc2n1`, for which the IC50 is 79.3 µM.
For the compound `O=C1OCC(CO)(CO)N=C1NNc1ccc(Cl)c(Cl)c1`, the half-maximal inhibitory concentration (IC50) was 109 µM.
With `O=C(Oc1c(Cl)cc(Cl)c2cccnc12)c1ccco1`, the IC50 was 21.6 µM.
Turning to `Nc1nc2ccccc2n1CCOc1ccccc1Cl`, the half-inhibitory concentration (IC50) was 71.8 µM.
`CCCCCCCCCCCCCCCC[n+]1cccc2ccccc21`: the concentration for half-maximal inhibition (IC50) is 19.1 µM.
The same measure for `CC[C@H]1OC(=O)C[C@@H](O)[C@H](C)[C@@H](O[C@@H]2O[C@H](C)C[C@H](N(C)C)[C@H]2O)[C@@H](CC=O)C[C@@H](C)C(=O)C=C[C@]2(C)O[C@H]2[C@@H]1C`: 14.2 µM; for `CC(C)CCNCC(O)CON=C1c2ccccc2-c2ccccc21` (configuration not stated): 126 µM.
On to `CCc1ccc(S(=O)(=O)/N=C2/C=C(Sc3ncn[nH]3)C(=O)c3ccccc32)cc1`, for which the 50% inhibitory concentration (IC50) is 76.9 µM.
As for `CC[C@H]1OC(=O)[C@H](C)[C@@H](O[C@H]2C[C@@](C)(OC)[C@@H](O)[C@H](C)O2)[C@H](C)[C@@H](O[C@@H]2O[C@H](C)C[C@H](N(C)C)[C@H]2O)[C@](C)(O)C[C@@H](C)[C@@H]2N[C@@H](COCCOC)O[C@H]([C@H]2C)[C@]1(C)O`, the IC50 was 25.1 µM.
The same measure for `NC1=NC[C@H](c2ccccc2)N1CCCCC1CCCCC1`: 52.2 µM; for `Cc1c2ccncc2c(C)c2c1[nH]c1ccccc12`: 19.6 µM; for `CC1CCC(C(C)C)C(OC(=O)Cn2c(COc3ccccc3)[n+](C)c3ccccc32)C1` (configuration not stated): 40.4 µM.
As to `Cc1ccc(Nc2c3c(nc4ccccc24)CCC3)cc1`, the IC50 was 122 µM.
For `COc1ccccc1CNCC(O)Cn1c2ccccc2c2ccccc21` (configuration not stated), the IC50 is 92 µM.
Consider `COc1c(N2CCN(C(=S)NC3CC4CCC3C4)C(C)C2)c(F)cc2c(=O)c(C(=O)O)cn(C3CC3)c12` (configuration not stated), for which the IC50 is 72.9 µM.
With `O=C(N/N=C/c1cc(Cl)ccc1O)c1cccnc1`, the IC50 is 25.6 µM.
The same measure for `O=C(C[n+]1cc(-c2ccc(Cl)c(Cl)c2)n2c1CCC2)N1c2ccccc2Sc2ccccc21`: 49 µM.
Regarding `Nc1c(Cl)ncnc1N/N=C/c1ccccn1`, the half-inhibitory concentration (IC50) was 25.5 µM.
For the compound `CCCCCCCCCn1c2c(c(=N)c3c1CCC3)CCC2`, the concentration for half-maximal inhibition (IC50) was 37.2 µM.
The same measure for `CCCCCOc1ccc(CSC(=N)N)cc1[N+](=O)[O-]`: 46.8 µM.
On to `C[C@H]1c2cccc(O)c2C(O)=C2C(=O)[C@]3(O)C(O)=C(C(N)=O)C(=O)[C@@H](N(C)C)[C@@H]3[C@@H](O)[C@@H]21`, for which the IC50 is 2.87 µM.
The same measure for `CC(=O)Oc1ccc(C(=O)[C@H]2[C@H]3C(=O)N(c4ccc5ccccc5c4)C(=O)[C@H]3[C@@H]3C=CC=NN32)cc1`: 128 µM; for `O=[N+]([O-])c1ccc(CNC2CCCc3ccccc32)cc1` (configuration not stated): 97.4 µM.
With `CCCOc1ccc(C(=O)NC(=S)N2CCN(c3cc4c(cc3F)c(=O)c(C(=O)O)cn4CC)CC2)cc1`, the IC50 is 56.5 µM.
For the compound `Cc1cc(C)n(-c2nc(NCCN(C)C)c3c4c(sc3n2)CCCC4)n1`, the IC50 was 92.1 µM.
In the case of `O=C(CSc1nc2ccccc2s1)N/N=C/c1cc([N+](=O)[O-])ccc1O`, the IC50 was 88.4 µM.
The same measure for `C/C(=N\Nc1nc2ccccc2[nH]1)c1ccccn1`: 22.5 µM.
On to `Cc1ccc(S(=O)(=O)/N=C2/C=C(Sc3ncn[nH]3)C(=O)c3ccccc32)cc1`, for which the IC50 is 32.6 µM.
The same measure for `COc1ccc(CN2C(=O)Cc3c2nc(N)c2c(N)nc(N4CCCCC4)c(C#N)c32)cc1`: 120 µM; for `Cc1ccnc(NC(c2cccnc2)c2ccc3cccnc3c2O)c1` (configuration not stated): 22.3 µM.
The same measure for `O=C(c1ccccc1)c1c2c(cc3sc4ccccc4[n+]13)-c1cccc3cccc-2c13`: 82.2 µM; for `COc1ccc(OCC(O)CNc2ccc(Br)cc2)cc1` (configuration not stated): 14.3 µM.
Consider `Cc1ccc(C(C[N+](=O)[O-])c2c(C)cc3ccccn23)cc1` (configuration not stated), for which the IC50 was 65 µM.
The same measure for `CCn1cc(C(=O)O)c(=O)c2cc(F)c(N3CCN(C(=S)NC(=O)c4ccc(OC)cc4)CC3)cc21`: 29.4 µM; for `CCCCCCCCn1c2c(c(=N)c3ccccc31)CCC2`: 38.9 µM.
The same measure for `Nc1ccc2nc(-c3cc(Cl)c(N)c(Cl)c3)[nH]c2c1`: 80.7 µM; for `CCCNC(=O)c1cn(CC)c2cc(N3CCN(C)CC3)c(F)cc2c1=O`: 48.2 µM.
The same measure for `ON=C1/C(=N\O)CC2(C/C1=N/O)OCCO2`: 98.3 µM; for `Cn1cnc([N+](=O)[O-])c1Oc1cccc(O)c1`: 143 µM; for `Clc1ccc(CNCc2cccs2)cc1Cl`: 76.1 µM.
For the compound `CN1/C(=C\C=C\C2=[N+](C)c3ccc4ccccc4c3C2(C)C)C(C)(C)c2ccccc21`, the IC50 was 9.42 µM.
As to `O=c1[nH][nH]c(-c2ccccc2O)c1C(C[N+](=O)[O-])c1ccc(Br)cc1` (configuration not stated), the IC50 was 51.7 µM.
For the compound `CC[n+]1c(/C=C/N(C)c2ccccc2)n(-c2ccccc2)c2ccc(-c3nc4ccccc4s3)cc21`, the IC50 was 19.4 µM.
Consider `O=C(N/N=C/c1c[nH]c2ccccc12)c1cc(-c2ccc3ccccc3c2)n[nH]1`, for which the IC50 was 47.3 µM.
The same measure for `Oc1ccc(CN2CCN(Cc3ccccc3)CC2)c2cccnc12`: 35 µM; for `O=C(Cc1c[nH]c2ccccc12)N/N=C/c1ccccc1O`: 89.3 µM.
On to `C=CC1=C(C(=O)O)N2C(=O)[C@@H](NC(=O)/C(=N/OCC(=O)O)c3csc(N)n3)[C@H]2SC1`, for which the IC50 is 30.3 µM.
The same measure for `CCn1cc(C(=O)NCC(C)C)c(=O)c2cc(F)c(N3CCN(C)CC3)cc21`: 67.8 µM; for `Cc1ccc(C(C[N+](=O)[O-])c2c(-c3ccccc3O)[nH][nH]c2=O)cc1` (configuration not stated): 14.9 µM.
The same measure for `Oc1c(C(Nc2cccc(C(F)(F)F)c2)c2cccnc2)ccc2cccnc12` (configuration not stated): 39.3 µM; for `O=S1(=O)N=C(N/N=C/c2ccccn2)c2ccccc21`: 19.3 µM.
